The source of these data is patent US5288706A, “Medicament for prevention and remedy of diseases of the pancreas and others” (Mitsui Toatsu Chemicals, Incorporated, priority 1987, dated 1994).

One series deals with ddy male mice. As to conditions: mouse, in vivo, sc. As for the experimental part: (§1) Thus, the medicament of the present invention is a safe medicament of extremely low toxicity and can be administered for a long period of time.
No toxicity was observed when 50 mg/kg and 100 mg/kg of FTS as the effective ingredient were subcutaneously administered for consecutive 14 days to a group of five ddy male mice of 5 weeks old.

A further series has as its system Wister rats. Particulars: rat, in vivo, sc, 30 mg/kg. The protocol:
as §1
No toxicity was observed when 30 mg/kg of FTS as the effective ingredient wa subcutaneously administered for consecutive 21 days to a group of ten Wister rats of 5 weeks old.

Read-outs that look alike come from different tables or passages of the source. Non-standard residues stand in square brackets, D forms with d. Residues, ends and D or L forms follow the SMILES beside them. pGlu = O=C1CC[C@@H](C(=O)O)N1

With `C[C@H](NC(=O)[C@@H]1CCC(=O)N1)C(=O)N[C@@H](CCCCN)C(=O)N[C@@H](CO)C(=O)N[C@@H](CCC(N)=O)C(=O)NCC(=O)NCC(=O)N[C@@H](CO)C(=O)N[C@@H](CC(N)=O)C(=O)O` [FTS, pGlu-Ala-Lys-Ser-Gln-Gly-Gly-Ser-Asn] ([pGlu]AKSQGGSN-OH), the toxicity entry in the series on ddy male mice (50 mg/kg), with ddy male mice (100 mg/kg) and in the series with Wister rats was “No toxicity” in each case. Further, in the series with Wister rats, the “toxicity (external behavior observation, biochemical diagnosis of sera, pathological anatomy)” value is given as “no abnormal symptom”.
